In general, melting point refers to the temperature of the solid-liquid transition.

Residues, ends and D or L forms follow the SMILES beside them. *: point of attachment. Tos = Cc1ccc(S(=O)(=O)*)cc1; NHPh = c1ccc(N*)cc1

Molecule `OC1CSC(Oc2cc(-c3cncnc3)cc(F)c2F)C(O)C1O` (stereo unspecified) gave a melting point of 191 °C. `CC(Cl)(Cl)C(NC(=O)c1ccc(Cl)cc1)NC(=N[N+](=O)[O-])Nc1cccnc1` (stereo unspecified): the melting point was in the range of 170 to 172 °C. `CC(C)(C)OC(=O)c1ccc2cncn2c1` yielded a melting point of 77 °C. Next, `c1nc2cc3c(cc2[nH]1)OCO3`: 155 to 156 °C; `CN1CCCC(n2nc(-c3c(-c4ccccc4)nn4ccccc34)ccc2=O)C1` (stereo unspecified): 126 to 127 °C; `Cc1ccc2cccc(OCc3c(Cl)ccc(N4CC(=O)NCC4=O)c3Cl)c2n1`: 211 to 213 °C. Regarding `CN(C)c1ccc(-c2cc(F)c(F)cc2-c2ccc(S(N)(=O)=O)cc2)cc1Cl`, the melting point is 193 to 194 °C.

Molecule `CCCc1c(SCCCOc2ccc(C(C)=O)c(OCCCC(=O)O)c2CCC)ccc(C(C)=O)c1O` displayed a melting point of 79 to 81 °C. `O=C(NC1CCCCC1)OCc1ccccc1[N+](=O)[O-]` displayed a melting point of 101 to 102 °C. As to `COc1ccnc(CSc2nc3cc4c(cc3[nH]2)OC(F)(F)O4)c1OC`, the melting point lay within 185 to 187 °C. For the molecule `O=C(O)[C@@H]1CC(=Cc2ccccc2)CN1C(=O)OCc1ccccc1`, the melting point lay in the range of 142 to 150 °C. With `COc1cccc(S(=O)(=O)c2ccc3[nH]c(C)c(CCNC(=O)OC(C)(C)C)c3c2)c1`, the melting point lay within 170 to 173 °C.

Molecule `CON=Cc1c(S(N)(=O)=O)ccn1C` returned a melting point of 120 to 122 °C. As to `CCN(CC)C(=O)COC(=O)C(C)c1ccc2cc(OC)ccc2c1` (stereo unspecified), the melting point lay in the range of 89 to 89.5 °C. For `CCOC(=O)C(C)(Cc1ccc(OCCN2CCCCC2)cc1)S(=O)(=O)c1ccc(OC)cc1` (stereo unspecified) the value was 106 °C; for `O=C(Nc1ccc(Cl)nc1)N1CC2(c3ccc(Cl)cc3)COc3cc(Cl)ccc3C2=N1` (stereo unspecified), > 250 °C. As for `CC(=O)N(CC(=O)O)c1csc(NC(=O)OCC(Cl)(Cl)Cl)n1`, the melting point worked out at 158 °C. For the molecule `CC1=C(C(=O)NN)C(c2ccccc2Cl)c2c[nH]nc2N1` (stereo unspecified), the melting point is 220 °C. Turning to `CS(=O)(=O)N1CCN([C@@H](CNS(=O)(=O)c2ccc(OCc3ccnc4ccccc34)cc2)C(=O)NO)CC1`, the melting point is 180 °C.

In turn, `CC(C)=CCCC(C)=CCCC(C)=Cc1ccc(C(=O)O)cc1` displayed a melting point of 92 to 92.5 °C. Molecule `O=C(O)COCCCCSc1cnc(-c2ccccc2)c(-c2ccccc2)n1` yielded a melting point of 86 to 88 °C. In turn, `COc1ccc(CNC(=O)C2=C(C(=O)Nc3cc(OC4CCCC4)c(Cl)cc3F)CCCC2)cc1` yielded a melting point of 161 to 162 °C. Regarding `CN(C)C(=O)Nc1ccc(N2CCOCC2)cc1`, the melting point is 199 to 204 °C. `N#Cc1nc(-c2ccc(OCCN3CCCCC3)cc2)cs1` had a melting point of 85 to 86 °C. Consider `COc1cc(C(=O)Oc2ccccc2C(C)=O)cc([N+](=O)[O-])c1OC`, for which the melting point lay in the range of 108 to 109 °C. In turn, `O=c1[nH]ccn1CC#CCN1CCCC1` came in with a melting point of 99 to 102 °C.

For the molecule `C=CC(=O)OCC(CCCCCCCCCCCOc1ccc(-c2cccc(F)c2F)cc1)COC(=O)C=C`, the melting point was in the range of 33.4 to 34.4 °C. In turn, `CN1CCN(c2ccc(I)nn2)CC1` came in with a melting point of 149 °C. Regarding `NCCc1ccc(C(N)=O)s1`, the melting point is 134 to 136 °C.

Turning to `CN1CCCC1c1ccc(CCNC(=O)c2ccc(Br)cc2)cc1` (stereo unspecified), the melting point fell in the range of 133 to 134 °C. Take `CC(COc1ccc(CC2SC(=O)NC2=O)cc1)NCC(O)c1cccc(Cl)c1` (stereo unspecified): the melting point lay within 100 to 125 °C. Next, `O=C1c2ccccc2C(=O)c2c(O)c(S(=O)(=O)c3ccccc3)cc(O)c21`: 258 to 260 °C; `O=C(CNc1ccc(O)cc1)N1CCC(Cc2ccc(F)cc2)CC1`: 155 to 157 °C; `NS(=O)(=O)Oc1ccccc1F`: 63 to 64 °C. `O=C(NC1CCN(CCc2cccc(F)c2)C1)C12CC3CC(CC(C3)C1)C2` (stereo unspecified) showed a melting point of 87 to 89 °C.

Molecule `CCOC(=O)c1ccc(C=C(C)C=O)o1` returned a melting point of 83 °C. With `NS(=O)(=O)c1ccccc1Cc1nnc(S)s1`, the melting point lay in the range of 173 to 197 °C.

`CN1C(=O)CC[C@]2(C)c3ccc(-c4ccc(Cl)cc4Cl)cc3CC[C@@H]12` came in with a melting point of 45 to 48 °C. On to `COC(=O)c1sc2ccc(NC=O)cc2c1N`, for which the melting point fell in the range of 202 to 204 °C.

As to `Oc1ccc(-c2c(Br)ccc3sc4ccccc4c23)cc1`, the melting point lay in the range of 185 to 186 °C. Regarding `CCn1c(=O)c(-c2c(Cl)cccc2Cl)cc2cnc(NCCCN3CCN(C)CC3)nc21`, the melting point lay in the range of 126 to 128 °C.

`COc1ccc(C(=O)c2c(Cc3ccccc3)oc3ccccc23)cc1`: the melting point lay in the range of 84 to 85 °C. Turning to `CCOC(=O)c1c[nH]c2cc(Cl)ncc2c1=O`, the melting point came to 300 °C. `COc1ccc(C2=NN(C3CCN(S(=O)(=O)c4ccccc4OC(F)(F)F)CC3)C(=O)CC2)cc1OC` registered a melting point of 118 to 119 °C.

Consider `Nc1nc2c(s1)CCN(CC=Cc1cc(Br)c(N)c(Br)c1)CC2`, for which the melting point was in the range of 198 to 199 °C. Regarding `O=C(O)c1ccc(C=Cc2ccccc2)cc1`, the melting point was determined as 252 °C. On to `Cc1cccc(COc2cccc(OCc3ccc(-c4ccccc4)cn3)c2)c1C(=O)O`, for which the melting point is 80 to 83 °C. `C[C@H]1Cn2c(=O)[nH]c3c(Br)ccc(c32)CN1C(=O)OC(C)(C)C` registered a melting point of 229 °C.

Regarding `CC(C)(C)OC(=O)CN(C(=O)CN(C(=O)CN1C(=O)c2ccccc2C1=O)c1ccccc1)c1ccccc1`, the melting point is 80 °C. For `Cc1ccc2oc(-c3ccccc3-c3nnn[nH]3)c(Br)c2c1` the value was 167 to 168 °C. `c1ccc2cc(-c3ccc(-c4nc(-c5ccc(-c6ccc7ccccc7c6)cc5)n(-c5cccc6ccccc56)n4)cc3)ccc2c1`: the melting point is > 250 °C. `CCOC(=O)C=Cc1cc(Cl)ccc1Cl`: the melting point was in the range of 34 to 36 °C. In turn, `CC(=O)N1C(C)(C)CC(NC(=O)c2ccc(Cl)c(N)c2)CC1(C)C` gave a melting point of 232 to 234 °C.

In the case of `CC(=O)SCC(Cc1ccccc1)NC(=O)OC(C)(C)C` (stereo unspecified), the melting point was in the range of 92 to 94 °C. `O=c1[nH]c2c(cnn2-c2ccccc2)c2ccccc12` displayed a melting point of 280 °C.

In turn, `N#CC(Nc1ccccc1[N+](=O)[O-])c1c(Cl)cccc1Cl` (stereo unspecified) displayed a melting point of 195 °C. On to `COc1ccc(-c2ocnc2-c2cc(OC)c(O)c(OC)c2)cc1F`, for which the melting point was in the range of 161 to 163 °C. Take `CC(C)[Si](C(C)C)(C(C)C)C1c2ccccc2-c2ccccc21`: the melting point is 122 to 123 °C. In turn, `O=C(O)C1Oc2cc(Cl)c(S(=O)(=O)c3ccc4c(c3)OCO4)cc2O1` (stereo unspecified) showed a melting point of 182 to 184 °C. As for `O=[N+]([O-])c1cc(C(F)(F)F)ccc1Sc1nc(-c2ccccc2)c(-c2ccccc2)[nH]1`, the melting point lay in the range of 234 to 236 °C.

`CC(=O)c1ccc2c(NCc3ccc(NC(=O)c4ccc(F)cc4)cc3)nc(N(C)C)nc2c1`: the melting point came out at 195 °C. For `CC(C)(CCn1ccnc1)NCC(O)c1ccc(OCc2ccccc2)c(NC(N)=O)c1` (stereo unspecified) the value was 142 to 143 °C; for `CC1CCC(c2ccc(Cl)c(Cl)c2)=NN1S(=O)(=O)c1ccc(I)cc1` (stereo unspecified), 194 to 196 °C; for `CCCCCCCCCCCCCCCCOC1=C(OCCCCCCCCCCCCCCCC)c2nc3c(Br)sc(Br)c3nc21`, 71.5 °C. In turn, `O=C(O)c1cc(OCc2ccccc2)c(C(=O)c2ccccc2)c([N+](=O)[O-])c1` came in with a melting point of 205 to 207 °C.

In turn, `COC(=O)C(C)(C)Cc1c(SC(C)(C)C)c2cc(OC)ccc2n1Cc1ccc(Cl)cc1` showed a melting point of 102 to 103 °C. As to `Cc1ccc(S(=O)(=O)N[C@@H](C)C(=O)N2CCC[C@H]2C(=O)Nc2ccccc2)cc1` (Tos-Ala-Pro-NHPh), the melting point fell in the range of 145 to 147 °C.

In the case of `CCCCc1ncc(C=C2C(=O)NC(=O)N2CCCC)n1Cc1ccccc1C(=O)O`, the melting point lay in the range of 287 to 289 °C. `CC(C)Cn1c(CNC(=O)OC(C)(C)C)c(-c2ccccc2F)c2cc(C(=O)O)ccc2c1=O` yielded a melting point of 213 to 214 °C. The molecule `CCOc1cc(Cl)ccc1-c1nc2n(C3CCCC3)[nH]c(CC)c-2c(=O)n1` registered a melting point of 185 to 187 °C. `CC1(c2ccc(F)cc2)OC(C=Cc2ccsc2)=CC1=O` (stereo unspecified) yielded a melting point of 97 to 98 °C. As for `O=C1Cc2cc(Cl)ccc2Oc2ccccc21`, the melting point lay in the range of 60 to 61 °C. For `CCOC(=O)Cc1nn(C/C=C/c2cccc(C(F)(F)F)c2F)c(=O)c2ccccc12`, the melting point is 104 to 106 °C. Molecule `COc1ccc(N2CCOCC2)c2sc(C(=O)O)nc12` yielded a melting point of 99 to 100 °C. Take `CCOC(=O)Nc1cnn(C)c1S(=O)(=O)NC(=S)NC(C)C`: the melting point was in the range of 141 to 144 °C. The molecule `CCCCCCCCCCCCCCc1ccc(O)c(CC)c1` came in with a melting point of 45.5 to 46.5 °C. As for `Cc1ccc(NC(=O)Nc2cccc(C(F)(F)F)c2)cc1/C=C/n1cnc2c(NC3CC3)ncnc21`, the melting point was 160 to 162 °C. Next, `Nc1ncccc1-c1nc2ccc(-c3cn[nH]c3)nc2n1-c1ccc(CNC(=O)c2cccc(F)c2)cc1`: 267 to 269 °C.

`CCc1nc2c(C)nc(C)cc2n1-c1ccc(CCNC(=O)NS(=O)(=O)c2ccc(C)cc2)cc1` came in with a melting point of 143 °C.

The molecule `CSC1=Nc2ccc(C)cc2Cn2nnnc21` returned a melting point of 157 to 160 °C. In turn, `CCCCNC(=O)[C@@H](C[C@H](O)[C@@H](N)C[C@H](Cc1ccc(OC)c(CCOCOC)c1)C(C)C)C(C)C` showed a melting point of 56 to 58 °C. As to `c1cc(COc2cccc(-c3nnn[nH]3)c2)cc(OCc2ccc3ccccc3n2)c1`, the melting point was in the range of 169 to 172 °C. Molecule `CCOC(=O)c1cccc(N(CC(=O)OC(C)(C)C)C(=O)CNC(=O)Nc2cccc(C)c2)c1` had a melting point of 71 °C.

Molecule `CC(=O)Nc1nc2c(Oc3cc(-c4ccc(C(F)(F)F)cc4NC(=O)C4CCCCN4C(C)C)ncn3)cccc2s1` (stereo unspecified) showed a melting point of 260 °C. Molecule `CNS(=O)(=O)c1ccccc1Nc1nc(Nc2ccc3c(c2)COCCN3C)ncc1Cl` registered a melting point of 163 to 164 °C. For `CC(CCC(=O)O)C1CCC2C3C(=O)CC4CC(OC=O)CCC4(C)C3CC(OC=O)C12C` (stereo unspecified) the value was 208 to 211 °C.

Source of the values: a melting point compilation (Tetko et al.; mined from patent text by program, amines drawn as free bases though some values may be those of a salt).
